Columns and labels:
Assay in all cases: Invitrogen SelectScreen kinase profiling
Assay type in all cases: biochemical
Conditions in all cases: 100 nM
PDGFRA (PDGFR alpha) = target: T1, PDGFRA (PDGFR alpha) (Homo sapiens, UniProt P16234)
T1 construct: purchased Invitrogen SelectScreen
Description: (§1) The FLT3 and VEGFR1/2 Kinase-Glo kinase assays were performed as reported by our earlier study. The VEGFR3 activity analysis was conducted using the same protocol described in the VEGFR1/2 assay. The kinase inhibition profiling and inhibitory activity of FLT3-D835Y, CSF1R, and TRKA were determined by Invitrogen SelectScreen® kinase profiling service (Carlsbad, California, USA).
(§2) BPR1J-340, a urea-substituted 3-phenyl-1H-5-pyrazolylamine-based compound, was designed through chemical modification of sulfonamide series of derivatives (BPR1J-097 series) by a structure-activity relationship (SAR) study (Fig. 1), [32]. For kinase inhibition specificity screening, BPR1J-340 was tested against 59 protein kinases covering the major oncogenic kinases of human protein kinome. […] In addition, BPR1J-340 inhibited TRKA, which is associated with the growth and metastasis of breast cancers, with an IC50 value of 8 nM. Given the high similarity of the ATP binding pockets of FLT3 and the Aurora kinases, the inhibitory activity toward Aurora A and Aurora B were measured. […] Taken together, BPRJ-340 is a selective kinase inhibitor with in vitro activity against FLT3, VEGFR2, VEGFR3 and TRKA receptor tyrosine kinases.

ERBB2 (HER2) = target: T2, ERBB2 (HER2) (Homo sapiens, UniProt P04626)
T2 construct: purchased Invitrogen SelectScreen
Description: as §1, §2

ABL1 T315I = target: T3, ABL1 T315I (Homo sapiens, UniProt P00519, T315I)
T3 construct: purchased Invitrogen SelectScreen
Description: as §1, §2

AURKC (Aurora C) = target: T4, AURKC (Aurora C) (Homo sapiens, UniProt Q9UQB9)
T4 construct: purchased Invitrogen SelectScreen
T4 sequence (Q9UQB9 whole entry): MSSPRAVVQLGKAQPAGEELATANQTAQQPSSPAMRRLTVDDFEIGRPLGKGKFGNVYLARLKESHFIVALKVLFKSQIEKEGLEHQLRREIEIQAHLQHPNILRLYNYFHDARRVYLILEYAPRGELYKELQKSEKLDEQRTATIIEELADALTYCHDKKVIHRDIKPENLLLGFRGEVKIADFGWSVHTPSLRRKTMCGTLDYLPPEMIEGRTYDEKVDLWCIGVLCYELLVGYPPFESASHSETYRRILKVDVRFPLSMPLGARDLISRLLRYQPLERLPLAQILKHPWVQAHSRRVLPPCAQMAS
Description: as §1, §2

FLT3 = target: T5, FLT3 (Homo sapiens, UniProt P36888)
T5 construct: purchased Invitrogen SelectScreen
T5 sequence (P36888 27-993): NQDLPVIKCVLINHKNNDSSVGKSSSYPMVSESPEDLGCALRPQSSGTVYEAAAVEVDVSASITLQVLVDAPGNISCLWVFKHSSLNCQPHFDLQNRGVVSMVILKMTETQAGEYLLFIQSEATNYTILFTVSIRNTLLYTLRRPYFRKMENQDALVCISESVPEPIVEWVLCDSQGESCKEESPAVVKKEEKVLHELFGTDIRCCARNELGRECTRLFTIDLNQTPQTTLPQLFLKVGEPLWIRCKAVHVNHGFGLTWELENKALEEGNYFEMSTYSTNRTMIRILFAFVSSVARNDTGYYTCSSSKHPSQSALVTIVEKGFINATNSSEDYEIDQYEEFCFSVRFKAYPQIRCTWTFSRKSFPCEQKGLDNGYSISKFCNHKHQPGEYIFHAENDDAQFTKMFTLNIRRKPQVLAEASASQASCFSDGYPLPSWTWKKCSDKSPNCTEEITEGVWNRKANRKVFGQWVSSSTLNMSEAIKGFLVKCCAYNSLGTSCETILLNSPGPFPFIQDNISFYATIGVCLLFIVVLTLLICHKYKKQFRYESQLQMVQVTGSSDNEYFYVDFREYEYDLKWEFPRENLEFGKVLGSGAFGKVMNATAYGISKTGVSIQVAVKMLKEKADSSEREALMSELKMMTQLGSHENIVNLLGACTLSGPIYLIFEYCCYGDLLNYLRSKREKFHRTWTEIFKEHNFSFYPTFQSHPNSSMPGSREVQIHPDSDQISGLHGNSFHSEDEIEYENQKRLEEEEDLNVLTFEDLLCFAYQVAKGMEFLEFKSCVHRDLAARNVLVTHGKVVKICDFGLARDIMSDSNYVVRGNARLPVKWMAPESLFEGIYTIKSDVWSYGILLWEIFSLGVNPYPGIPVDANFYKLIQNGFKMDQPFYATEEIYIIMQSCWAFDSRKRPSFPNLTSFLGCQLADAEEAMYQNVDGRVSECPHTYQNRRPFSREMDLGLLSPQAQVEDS
Description: as §1, §2

FRAP1 (mTOR) = target: T6, FRAP1 (mTOR) (Homo sapiens, UniProt P42345)
T6 construct: purchased Invitrogen SelectScreen
Description: as §1, §2

CSK = target: T7, CSK (Homo sapiens, UniProt P41240)
T7 construct: purchased Invitrogen SelectScreen
Description: as §1, §2

AKT1 (PKB alpha) = target: T8, AKT1 (PKB alpha) (Homo sapiens, UniProt P31749)
T8 construct: purchased Invitrogen SelectScreen
T8 sequence (P31749 whole entry): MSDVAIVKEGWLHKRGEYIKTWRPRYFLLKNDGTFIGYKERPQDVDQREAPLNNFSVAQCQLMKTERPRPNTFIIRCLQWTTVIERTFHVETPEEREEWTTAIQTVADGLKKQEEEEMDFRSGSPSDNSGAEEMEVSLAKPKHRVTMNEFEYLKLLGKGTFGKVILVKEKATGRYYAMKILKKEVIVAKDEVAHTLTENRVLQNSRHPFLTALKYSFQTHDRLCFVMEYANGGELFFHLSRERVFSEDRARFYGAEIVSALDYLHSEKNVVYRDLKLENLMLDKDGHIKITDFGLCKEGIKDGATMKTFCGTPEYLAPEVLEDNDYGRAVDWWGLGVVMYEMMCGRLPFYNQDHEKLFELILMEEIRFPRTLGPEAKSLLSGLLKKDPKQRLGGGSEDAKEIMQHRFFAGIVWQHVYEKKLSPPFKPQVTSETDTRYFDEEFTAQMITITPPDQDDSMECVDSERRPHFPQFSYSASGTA
Description: as §1, §2

LYN A = target: T9, LYN A (Homo sapiens, UniProt P07948)
T9 construct: purchased Invitrogen SelectScreen
Description: as §1, §2

ABL1 = target: T10, ABL1 (Homo sapiens, UniProt P00519)
T10 construct: purchased Invitrogen SelectScreen
Description: as §1, §2

CHEK2 (CHK2) = target: T11, CHEK2 (CHK2) (Homo sapiens, UniProt O96017)
T11 construct: purchased Invitrogen SelectScreen
Description: as §1, §2

AMPK A1/B1/G1 = target: T12, AMPK A1/B1/G1 (Homo sapiens, UniProt Q13131)
T12 construct: purchased Invitrogen SelectScreen
Description: as §1, §2

MAP2K1 (MEK1) = target: T13, MAP2K1 (MEK1) (Homo sapiens, UniProt Q02750)
T13 construct: purchased Invitrogen SelectScreen
T13 sequence (Q02750 whole entry): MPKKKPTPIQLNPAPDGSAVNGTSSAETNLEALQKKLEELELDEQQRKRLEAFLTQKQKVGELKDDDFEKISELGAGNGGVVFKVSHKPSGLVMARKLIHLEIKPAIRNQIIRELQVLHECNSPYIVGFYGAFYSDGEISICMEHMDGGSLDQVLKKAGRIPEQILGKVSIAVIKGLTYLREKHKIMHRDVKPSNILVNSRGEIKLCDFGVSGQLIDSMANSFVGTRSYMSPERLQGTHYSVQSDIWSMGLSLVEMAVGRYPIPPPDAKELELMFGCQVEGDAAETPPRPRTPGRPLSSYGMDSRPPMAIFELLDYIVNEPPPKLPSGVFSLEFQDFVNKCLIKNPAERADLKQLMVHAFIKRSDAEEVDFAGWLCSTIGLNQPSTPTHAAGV
Description: as §1, §2

SGK2 = target: T14, SGK2 (Homo sapiens, UniProt Q9HBY8)
T14 construct: purchased Invitrogen SelectScreen
T14 sequence (Q9HBY8 whole entry): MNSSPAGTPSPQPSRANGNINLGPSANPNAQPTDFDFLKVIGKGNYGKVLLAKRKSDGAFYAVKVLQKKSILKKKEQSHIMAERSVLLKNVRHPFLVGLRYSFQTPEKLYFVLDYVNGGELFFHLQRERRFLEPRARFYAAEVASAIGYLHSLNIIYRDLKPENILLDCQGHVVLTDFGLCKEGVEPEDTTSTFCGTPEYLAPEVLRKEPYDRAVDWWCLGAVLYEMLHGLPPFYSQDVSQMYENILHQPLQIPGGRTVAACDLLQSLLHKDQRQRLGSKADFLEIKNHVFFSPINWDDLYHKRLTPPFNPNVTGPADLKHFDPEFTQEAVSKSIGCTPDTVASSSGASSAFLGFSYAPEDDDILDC
Description: as §1, §2

MST1R (RON) = target: T15, MST1R (RON) (Homo sapiens, UniProt Q04912)
T15 construct: purchased Invitrogen SelectScreen
Description: as §1, §2

BTK = target: T16, BTK (Homo sapiens, UniProt Q06187)
T16 construct: purchased Invitrogen SelectScreen
Description: as §1, §2

RAF1 (cRAF) Y340D Y341D = target: T17, RAF1 (cRAF) Y340D Y341D (Homo sapiens, UniProt P04049, Y340D/Y341D)
T17 construct: purchased Invitrogen SelectScreen
T17 sequence (P04049 whole entry Y340D/Y341D): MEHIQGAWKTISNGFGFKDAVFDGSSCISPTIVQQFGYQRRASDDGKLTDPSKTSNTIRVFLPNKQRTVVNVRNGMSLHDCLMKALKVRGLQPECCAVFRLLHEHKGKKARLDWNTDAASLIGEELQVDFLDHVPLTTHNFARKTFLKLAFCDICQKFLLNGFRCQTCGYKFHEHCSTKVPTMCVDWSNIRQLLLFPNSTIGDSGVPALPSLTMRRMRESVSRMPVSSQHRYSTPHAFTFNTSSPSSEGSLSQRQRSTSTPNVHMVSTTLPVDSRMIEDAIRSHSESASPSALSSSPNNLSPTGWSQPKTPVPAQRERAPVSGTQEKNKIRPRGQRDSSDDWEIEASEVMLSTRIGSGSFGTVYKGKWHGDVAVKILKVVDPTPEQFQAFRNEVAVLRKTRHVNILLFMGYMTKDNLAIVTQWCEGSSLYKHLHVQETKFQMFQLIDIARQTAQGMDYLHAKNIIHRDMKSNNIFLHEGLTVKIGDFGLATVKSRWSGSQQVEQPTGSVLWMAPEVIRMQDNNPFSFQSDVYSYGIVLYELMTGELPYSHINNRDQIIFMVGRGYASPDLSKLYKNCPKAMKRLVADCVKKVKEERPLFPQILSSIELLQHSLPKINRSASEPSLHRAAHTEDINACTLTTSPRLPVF
Description: as §1, §2

SRC = target: T18, SRC (Homo sapiens, UniProt P12931)
T18 construct: purchased Invitrogen SelectScreen
Description: as §1, §2

IGF1R = target: T19, IGF1R (Homo sapiens, UniProt P08069)
T19 construct: purchased Invitrogen SelectScreen
Description: as §1, §2

JAK1 = target: T20, JAK1 (Homo sapiens, UniProt P23458)
T20 construct: purchased Invitrogen SelectScreen
Description: as §1, §2

CHEK1 (CHK1) = target: T21, CHEK1 (CHK1) (Homo sapiens, UniProt O14757)
T21 construct: purchased Invitrogen SelectScreen
Description: as §1, §2

NEK1 = target: T22, NEK1 (Homo sapiens, UniProt Q96PY6)
T22 construct: purchased Invitrogen SelectScreen
Description: as §1, §2

TYRO3 (RSE) = target: T23, TYRO3 (RSE) (Homo sapiens, UniProt Q06418)
T23 construct: purchased Invitrogen SelectScreen
T23 sequence (Q06418 41-890): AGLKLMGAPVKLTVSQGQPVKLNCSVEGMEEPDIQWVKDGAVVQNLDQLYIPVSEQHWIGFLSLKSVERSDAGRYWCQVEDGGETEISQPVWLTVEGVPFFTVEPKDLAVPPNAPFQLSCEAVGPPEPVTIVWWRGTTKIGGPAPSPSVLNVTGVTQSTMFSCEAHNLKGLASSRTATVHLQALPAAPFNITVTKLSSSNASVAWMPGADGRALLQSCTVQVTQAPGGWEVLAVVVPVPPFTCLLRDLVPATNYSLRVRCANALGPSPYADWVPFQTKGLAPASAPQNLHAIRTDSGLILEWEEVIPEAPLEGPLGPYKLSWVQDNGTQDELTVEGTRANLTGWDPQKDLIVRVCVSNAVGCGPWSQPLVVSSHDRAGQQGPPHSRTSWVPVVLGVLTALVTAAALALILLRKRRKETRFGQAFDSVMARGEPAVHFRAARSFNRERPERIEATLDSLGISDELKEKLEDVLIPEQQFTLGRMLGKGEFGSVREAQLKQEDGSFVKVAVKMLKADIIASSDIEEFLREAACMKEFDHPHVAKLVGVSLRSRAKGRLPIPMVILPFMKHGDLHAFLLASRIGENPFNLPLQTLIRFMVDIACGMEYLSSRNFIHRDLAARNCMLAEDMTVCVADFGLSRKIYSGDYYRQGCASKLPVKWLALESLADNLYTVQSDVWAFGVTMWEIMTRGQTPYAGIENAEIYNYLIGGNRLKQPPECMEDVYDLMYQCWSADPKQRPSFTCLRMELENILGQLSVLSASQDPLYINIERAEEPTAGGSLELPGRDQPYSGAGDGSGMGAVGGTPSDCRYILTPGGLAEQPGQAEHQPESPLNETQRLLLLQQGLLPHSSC
Description: as §1, §2

AXL = target: T24, AXL (Homo sapiens, UniProt P30530)
T24 construct: purchased Invitrogen SelectScreen
Description: as §1, §2

RPS6KB1 (p70S6K) = target: T25, RPS6KB1 (p70S6K) (Homo sapiens, UniProt P23443)
T25 construct: purchased Invitrogen SelectScreen
Description: as §1, §2

PDGFRB (PDGFR beta) = target: T26, PDGFRB (PDGFR beta) (Homo sapiens, UniProt P09619)
T26 construct: purchased Invitrogen SelectScreen
Description: as §1, §2

SGK (SGK1) = target: T27, SGK (SGK1) (Homo sapiens, UniProt O00141)
T27 construct: purchased Invitrogen SelectScreen
Description: as §1, §2

RPS6KA2 (RSK3) = target: T28, RPS6KA2 (RSK3) (Homo sapiens, UniProt Q15349)
T28 construct: purchased Invitrogen SelectScreen
Description: as §1, §2

NEK2 = target: T29, NEK2 (Homo sapiens, UniProt P51955)
T29 construct: purchased Invitrogen SelectScreen
Description: as §1, §2

TEK (Tie2) = target: T30, TEK (Tie2) (Homo sapiens, UniProt Q02763)
T30 construct: purchased Invitrogen SelectScreen
Description: as §1, §2

MET (cMet) = target: T31, MET (cMet) (Homo sapiens, UniProt P08581)
T31 construct: purchased Invitrogen SelectScreen
Description: as §1, §2

FGFR1 = target: T32, FGFR1 (Homo sapiens, UniProt P11362)
T32 construct: purchased Invitrogen SelectScreen
Description: as §1, §2

KIT = target: T33, KIT (Homo sapiens, UniProt P10721)
T33 construct: purchased Invitrogen SelectScreen
Description: as §1, §2

CDK2/cyclin A = target: T34, CDK2/cyclin A (Homo sapiens, UniProt P24941)
T34 construct: purchased Invitrogen SelectScreen
Description: as §1, §2

CLK2 = target: T35, CLK2 (Homo sapiens, UniProt P49760)
T35 construct: purchased Invitrogen SelectScreen
T35 sequence (P49760 whole entry): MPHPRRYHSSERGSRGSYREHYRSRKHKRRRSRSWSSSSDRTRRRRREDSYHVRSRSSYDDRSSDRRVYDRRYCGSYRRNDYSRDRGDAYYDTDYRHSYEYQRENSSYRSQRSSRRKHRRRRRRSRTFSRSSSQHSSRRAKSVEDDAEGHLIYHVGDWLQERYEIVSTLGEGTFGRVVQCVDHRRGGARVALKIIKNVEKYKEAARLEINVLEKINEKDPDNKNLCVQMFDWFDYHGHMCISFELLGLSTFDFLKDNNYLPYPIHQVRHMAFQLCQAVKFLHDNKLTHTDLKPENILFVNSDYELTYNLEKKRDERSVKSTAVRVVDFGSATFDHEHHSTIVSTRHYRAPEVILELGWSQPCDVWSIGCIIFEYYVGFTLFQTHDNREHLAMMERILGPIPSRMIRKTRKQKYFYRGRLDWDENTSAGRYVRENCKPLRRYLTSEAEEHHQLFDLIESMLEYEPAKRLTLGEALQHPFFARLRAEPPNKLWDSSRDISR
Description: as §1, §2

AURKA (Aurora A) = target: T36, AURKA (Aurora A) (Homo sapiens, UniProt O14965)
T36 construct: purchased Invitrogen SelectScreen
T36 sequence (O14965 whole entry): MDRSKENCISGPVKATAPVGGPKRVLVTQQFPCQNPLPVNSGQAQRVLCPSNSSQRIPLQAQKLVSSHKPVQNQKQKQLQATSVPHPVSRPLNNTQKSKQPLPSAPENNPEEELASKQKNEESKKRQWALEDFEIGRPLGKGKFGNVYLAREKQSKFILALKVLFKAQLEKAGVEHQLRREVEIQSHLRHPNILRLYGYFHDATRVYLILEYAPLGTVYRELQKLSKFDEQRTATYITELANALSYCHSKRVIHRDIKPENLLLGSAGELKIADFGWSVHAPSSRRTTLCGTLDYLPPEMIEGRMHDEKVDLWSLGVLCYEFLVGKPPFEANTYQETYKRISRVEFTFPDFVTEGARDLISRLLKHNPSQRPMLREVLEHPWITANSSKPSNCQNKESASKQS
Description: as §1, §2

## CCc1cc(NC(=O)NCc2ccc(-c3cc(NC(=O)c4ccc(CN5CCN(C)CC5)cc4)[nH]n3)cc2)no1 [BPR1J-340, N1-(3-4-[([(5-ethyl-3-isoxazolyl)amino]carbonylamino)methyl]phenyl-1H-5-pyrazolyl)-4-[(4-methylpiperazino)methyl]benzamide]
PDGFRA (PDGFR alpha)
  inhibition at 0.1 µM: 38%
ERBB2 (HER2)
  inhibition at 0.1 µM: 11%
ABL1 T315I
  inhibition at 0.1 µM: 15%
AURKC (Aurora C)
  inhibition at 0.1 µM: 19%
FLT3
  inhibition at 0.1 µM: 97%
FRAP1 (mTOR)
  inhibition at 0.1 µM: -8%
CSK
  inhibition at 0.1 µM: 3%
AKT1 (PKB alpha)
  inhibition at 0.1 µM: -2%
LYN A
  inhibition at 0.1 µM: 17%
ABL1
  inhibition at 0.1 µM: 7%
CHEK2 (CHK2)
  inhibition at 0.1 µM: -6%
AMPK A1/B1/G1
  inhibition at 0.1 µM: 30%
MAP2K1 (MEK1)
  inhibition at 0.1 µM: 0%
SGK2
  inhibition at 0.1 µM: 22%
MST1R (RON)
  inhibition at 0.1 µM: 6%
BTK
  inhibition at 0.1 µM: 7%
RAF1 (cRAF) Y340D Y341D
  inhibition at 0.1 µM: 4%
SRC
  inhibition at 0.1 µM: 34%
IGF1R
  inhibition at 0.1 µM: 12%
JAK1
  inhibition at 0.1 µM: -3%
CHEK1 (CHK1)
  inhibition at 0.1 µM: 27%
NEK1
  inhibition at 0.1 µM: -6%
TYRO3 (RSE)
  inhibition at 0.1 µM: 15%
AXL
  inhibition at 0.1 µM: -4%
RPS6KB1 (p70S6K)
  inhibition at 0.1 µM: -18%
PDGFRB (PDGFR beta)
  inhibition at 0.1 µM: 39%
SGK (SGK1)
  inhibition at 0.1 µM: 11%
RPS6KA2 (RSK3)
  inhibition at 0.1 µM: 9%
NEK2
  inhibition at 0.1 µM: 2%
TEK (Tie2)
  inhibition at 0.1 µM: 42%
MET (cMet)
  inhibition at 0.1 µM: 17%
FGFR1
  inhibition at 0.1 µM: 17%
KIT
  inhibition at 0.1 µM: 66%
CDK2/cyclin A
  inhibition at 0.1 µM: 5%
CLK2
  inhibition at 0.1 µM: -7%
AURKA (Aurora A)
  inhibition at 0.1 µM: 15%

— PMC3885398, “Evaluation of the Antitumor Effects of BPR1J-340, a Potent and Selective FLT3 Inhibitor, Alone or in Combination with an HDAC Inhibitor, Vorinostat, in AML Cancer” (PLoS ONE, 2014)
